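48-hour exposure; five concentrations; linearly interpolated endpoints. TGI: total growth inhibition.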
Assays:
Assay in all cases: NCI tumour cell line growth inhibition, 48 h
TK-10 renal = tested on: TK-10 renal
RXF 393 renal = tested on: RXF 393 renal
A498 renal = tested on: A498 renal
NCI-H23 lung = tested on: NCI-H23 lung
SK-OV-3 ovarian = tested on: SK-OV-3 ovarian
CCRF-CEM leukemia = tested on: CCRF-CEM leukemia
786-0 renal = tested on: 786-0 renal
HCT-116 colon = tested on: HCT-116 colon
SF-295 CNS = tested on: SF-295 CNS
UO-31 renal = tested on: UO-31 renal
NCI-H522 lung = tested on: NCI-H522 lung
COLO 205 colon = tested on: COLO 205 colon
NCI-H460 lung = tested on: NCI-H460 lung
SF-268 CNS = tested on: SF-268 CNS
ACHN renal = tested on: ACHN renal
LOX IMVI melanoma = tested on: LOX IMVI melanoma
MDA-N = tested on: MDA-N
NCI/ADR-RES ovarian = tested on: NCI/ADR-RES ovarian
DU-145 prostate = tested on: DU-145 prostate
HS 578T breast = tested on: HS 578T breast

Structure (SMILES)	TGI (TK-10 renal)	TGI (RXF 393 renal)	TGI (A498 renal)	TGI (NCI-H23 lung)	TGI (SK-OV-3 ovarian)	TGI (CCRF-CEM leukemia)	TGI (786-0 renal)	TGI (HCT-116 colon)	TGI (SF-295 CNS)	TGI (UO-31 renal)	TGI (NCI-H522 lung)	TGI (COLO 205 colon)	TGI (NCI-H460 lung)	TGI (SF-268 CNS)	TGI (ACHN renal)	TGI (LOX IMVI melanoma)	TGI (MDA-N)	TGI (NCI/ADR-RES ovarian)	TGI (DU-145 prostate)	TGI (HS 578T breast)
COc1cc(NC(C)=O)c2[nH]c3c(C)cc(NC(C)=O)c(C)c3c2c1	> 100 µM	> 100 µM	> 100 µM	> 100 µM	> 100 µM	> 100 µM	> 100 µM	> 100 µM	> 100 µM	> 100 µM	> 100 µM	> 100 µM	> 100 µM	> 100 µM	> 100 µM	–	–	–	–	–
c1ccc(Nc2nnc(CSc3nc(-c4ccccc4)c(-c4ccccc4)[nH]3)s2)cc1	> 100 µM	–	49.1 µM	45.1 µM	56 µM	49.1 µM	39.3 µM	35.7 µM	36 µM	34.7 µM	34.9 µM	25.6 µM	36.3 µM	46.2 µM	> 100 µM	31.8 µM	–	–	–	–
CCc1nnc(CC)n1NCCCC(=O)O	> 100 µM	> 100 µM	–	> 100 µM	> 100 µM	> 100 µM	> 100 µM	> 100 µM	> 100 µM	> 100 µM	> 100 µM	> 100 µM	–	> 100 µM	> 100 µM	> 100 µM	> 100 µM	> 100 µM	> 100 µM	–
O=P(O)(OCC(O)O)OCC(O)O	> 100 µM	> 100 µM	> 100 µM	> 100 µM	> 100 µM	> 100 µM	> 100 µM	> 100 µM	> 100 µM	> 100 µM	> 100 µM	> 100 µM	> 100 µM	> 100 µM	> 100 µM	> 100 µM	–	–	–	–
COc1cc(/C=C/C(=O)c2sc(-n3nc(-c4ccccc4)cc3-c3ccccc3)nc2C)ccc1O	> 100 µM	> 100 µM	> 100 µM	> 100 µM	> 100 µM	> 100 µM	> 100 µM	–	> 100 µM	> 100 µM	> 100 µM	> 100 µM	> 100 µM	> 100 µM	> 100 µM	> 100 µM	–	–	–	–
COc1cc(/C=C\c2ccccn2)cc(OC)c1OC	> 100 µM	> 100 µM	> 100 µM	> 100 µM	–	> 100 µM	> 100 µM	> 100 µM	> 100 µM	> 100 µM	> 100 µM	> 100 µM	> 100 µM	> 100 µM	> 100 µM	> 100 µM	–	–	–	–
COc1cc(Br)c(OC)c2c(OC)cc(C)cc12	> 100 µM	> 100 µM	> 100 µM	> 100 µM	> 100 µM	> 100 µM	> 100 µM	> 100 µM	> 100 µM	> 100 µM	> 100 µM	> 100 µM	> 100 µM	> 100 µM	> 100 µM	> 100 µM	–	> 100 µM	> 100 µM	> 100 µM
